The source of these data is ChEMBL document CHEMBL1151038, “-Glucan biosynthesis inhibitors isolated from fungi as hyphal malformation inducer” (1993).

Usually inhibition stands for the share of the control response that was lost under treatment. Read a high inhibition as a strong effect.

Assay [1] relates to Saccharomyces cerevisiae. As to the kind of experiment: In vitro inhibitory activity of Beta-1,3-glucan synthase of Saccharomyces cerevisiae at concentration of 100 ug/ml.
The test system of assay [2] is Saccharomyces cerevisiae. Nature of the assay: In vitro inhibitory activity of Beta-1,3-glucan synthase of Saccharomyces cerevisiae at concentration of 200 ug/ml.
Assay [3] deals with Saccharomyces cerevisiae. Nature of the assay: In vitro inhibitory activity of Beta-1,3-glucan synthase of Saccharomyces cerevisiae at concentration of 25 ug/ml.
Assay [4] deals with Saccharomyces cerevisiae. Nature of the assay: In vitro inhibitory activity of Beta-1,3-glucan synthase of Saccharomyces cerevisiae at concentration of 400 ug/ml.
For assay [5], the system named is Saccharomyces cerevisiae. Nature of the assay: In vitro inhibitory activity of Beta-1,3-glucan synthase of Saccharomyces cerevisiae at concentration of 50 ug/ml.
Assay [6] deals with Saccharomyces cerevisiae. As to the kind of experiment: In vitro inhibitory activity of Beta-1,3-glucan synthase of Saccharomyces cerevisiae at concentration of 800 ug/ml.
The subject of assay [7] is Phytophthora capsici. As to the kind of experiment: Minimum amount required to induce hyphal malformation in Phytophthora capsici. The format is functional.
Assay [8] relates to Saccharomyces cerevisiae. Nature of the assay: In vitro inhibitory activity of Beta-1,3-glucan synthase of Saccharomyces cerevisiae at concentration of 12.5 ug/ml.

Regarding `C[C@H]1C(=O)C(CO)=C[C@H](O)[C@H]1O`, the inhibition in assay [1] is 66%; in assay [2], 75%; in assay [3], 30%; in assay [4], 85%; in assay [5], 47%; in assay [6], 91%. The same compound showed an inhibition in assay [8] of 12%. The compound also showed an Activity in assay [7] of 100 ug disk-1.

In the case of `CC(C)=C[C@H]1C[C@H](C)[C@]2(CC[C@]3(C)C[C@H]4[C@H](C(=O)C[C@@]4(C)O)/C(C=O)=C\C[C@H]32)O1` [OPHIOBOLIN A], the inhibition in assay [1] worked out at 74%; in assay [2] it was 79%; in assay [3], 56%; in assay [4] it was 84%; in assay [5], 56%; in assay [6] it was 89%. For the same compound, the inhibition in assay [8] turned out to be 31%. Further, in assay [7], the Activity was found to be 10 ug disk-1.

With `C[C@H]1CCC/C=C/[C@@H]2C[C@H](O)C[C@H]2[C@H](O)/C=C/C(=O)O1` [BREFELDIN A], the inhibition in assay [1] is 0%; in assay [2], 0%; in assay [3] it was 0%; in assay [4], 6%; in assay [5], 0%; in assay [6], 0%. The same compound displayed an inhibition in assay [8] of 0%. In assay [7], this compound came in with an Activity of 50 ug disk-1.
